According to patent publication US20220288004A1, “TREATMENT AND PREVENTION OF AGING RELATED-DISEASE AND/OR AGING BY THE INHIBITION OF SPHINGOLIPIDS” (ECOLE POLYTECHNIQUE FEDERALE DE LAUSANNE (EPFL), priority 2019, published 2022):
Entries after “also recorded” stand apart in the source; their conditions may differ.

How the values were obtained:
aged C57Bl/6JRj mice [1] = experiment: Body composition, muscle mass and TA muscle histology in aged mice; format: in vivo, mouse
Description: To examine whether a causal relationship could underlie the correlation between SphPC1 and muscle mass and function, it was tested whether inhibition of sphingolipid de novo biosynthesis pathway could protect against age-related muscle dysfunction. Aged (18-month-old) C57Bl/6JRj mice were treated for 5 months on chow diet with myriocin, a specific inhibitor of SPT, the first and rate-limiting enzyme of the sphingolipid de novo synthesis pathway, and whose expression in skeletal muscle was negatively correlated with muscular fitness in BXDs.
Animals. Young (2-month-old) and aged (18-month-old) C57Bl/6JRj mice were purchased from Janvier Labs. EchoMRI measuring the fat and lean body mass, were measured before and after the treatment. The dose of myriocin was 0.4 mg/kg/3 times a week. Myriocin (Enzo Life Sciences, Farmingdale, N.Y.) was first dissolved in DMSO which was then mixed with PBS so that each mouse received 1.5 μL DMSO per injection. Animals were fed on a standard chow diet. All animals were housed in micro-isolator cages in a room illuminated from 7:00 AM to 7:00 PM with ad libitum access to diet and water. All the animal experiments are authorized by animal license 2890.1 and 3341 in Canton of Vaud, Switzerland.
Histology. TA muscles were harvested from anesthetized mice, and immediately embedded in Thermo Scientific™ Shandon™ Cryomatrix™ and frozen in isopentane, cooled in liquid nitrogen, for 1 min before being transferred to dry ice and stored at −80° C. 8 μm cryosections were incubated in 4% PFA for 15 min, washed three times for 10 min with PBS, incubated for antigen retrieval in pH 6.0 citrate buffer for 10 min at 95° C. […] Microscopy images of fluorescence from muscle fibers were analyzed using the ImageJ software. Centralized nuclei percent, minimal Feret diameter and cross-sectional area in TA muscles were determined using the ImageJ software quantification of laminin, dystrophin, and DAPI-stained muscle images from VS120-S6-W slides scanner (Olympus). […] The mean cross-sectional area of muscle fibers was calculated as the average cross-sectional area of 2,000 fibers per from sample. 7-8 mouse samples per condition were used for histological quantification of donor mice. The eMyHC quantification is expressed as proportion of eMyHC positive signal over total TA cross sectional area. Following MuSC injection in CTX injected recipient mice, inflammation representing the regenerative stage of muscle was quantified by ImageJ software as proportion of inflammatory area over total area of the TA muscle cross section. The PAX7-positive cells were quantified as the average number of cells per field of more than 30 randomly chosen fields from a mouse TA. For each quantification, 3 or more mice were used.

human primary myoblasts = experiment: Human primary myoblast differentiation; format: cell-based; settings: 30 μM myriocin vs DMSO
Description: Cell culture and cell transfection. The C2C12 mouse myoblast cell line was obtained from the American Type Culture Collection (CRL-1772™). C2C12 cells or clones were cultured in growth medium consisting of Dulbecco's modified Eagle's medium (Gibco, 41966-029), 20% Fetal Bovine Serum (Gibco, 10270-106) and 100 U/mL penicillin and […] streptomycin (Gibco, 15140-122). To induce differentiation, FBS was substituted with 2% horse serum (Gibco, 16050-122). Trypsin-EDTA 0.05% (GIBCO, 25300-062) was used to detach cells. Human skeletal muscle cells were obtained from Lonza (SkMC, #CC-2561) and cultured in growth medium consisting of DMEM/F12 (Gibco, 10565018), 20% Fetal Bovine Serum (Gibco, 10270-106) and 100 U/mL penicillin and […] streptomycin (Gibco, 15140-122). To induce differentiation, FBS was reduced to 2% and kept in culture. All cells were maintained at 37° C. with 5% CO2. Cell transfections were done using TransiT (Mirus) according to the manufacturer's protocol with a 3:1 ratio of transfection agent to DNA. […]
Immunocytochemistry. […] The immunofluorescence images were acquired using either fluorescence or confocal microscopy. The myofusion index was calculated as the ratio of nuclei within myotubes to total nuclei. The myotube diameter was measured for 8 myotubes per image using ImageJ. Myotube area was calculated as the total area covered by myotubes.

aged C57Bl/6JRj mice [2] = experiment: Ad libitum locomotion during 10 min in aged mice; format: in vivo, mouse; settings: myriocin 0.4 mg/kg i.p. 3 times per week, 5 months
Description: FIG. 9. Sphingolipid depletion protects against frailty phenotypes. (a) Distance moved in 10 mins. (b) Average velocity during 10 minutes of observation. (c) Glucose tolerance test. (d) Time exploring familiar and novel objects. (e) Recognition index. Aged (18-month-old) C57BL/6JRj mice were treated with intraperitoneal injections of myriocin (MYR) for 5 months @ 0.4 mg/kg/3 times per week.
Human frailty syndrome is characterized by weakness, decreased walking speed, exhaustion, weight loss, and low physical activity. […] Frailty predicts falls in older people. […] In object recognition test, myriocin treated mice spent more exploring both the familiar object and novel object as compared to their DMSO treated counterparts (FIG. 9d). Although this could be partly attributable to the higher physical activity of myriocin treated mice, the treated mice were more interested in the novel than familiar object as compared to untreated mice.

CCCCCCC(=O)CCCCCCC=CCC(O)C(O)C(N)(CO)C(=O)O (centres unmarked) [myriocin, 2-Amino-3,4-dihydroxy-2-(hydroxymethyl)-14-oxoicos-6-enoic acid]
lean body mass (aged C57Bl/6JRj mice [1]; myriocin 0.4 mg/kg i.p. 3 times per week, 5 months, EchoMRI before and after treatment): delayed age-dependent decline; also recorded: higher | cross-sectional area of muscle fibers (TA) (aged C57Bl/6JRj mice [1]; myriocin 5 months vs DMSO): larger | number of centralized nuclei in TA muscle (aged C57Bl/6JRj mice [1]; myriocin 5 months vs DMSO): reduced number | gastrocnemius and TA mass (aged C57Bl/6JRj mice [1]; myriocin 5 months vs DMSO treated controls): greater; also recorded: higher | human myoblast differentiation (human primary myoblasts): accelerated | myotube area (human primary myoblasts): larger | ad libitum walking speed (average velocity during 10 minutes) (aged C57Bl/6JRj mice [2]): increased | distance travelled ad libitum during 10 min (aged C57Bl/6JRj mice [2]): longer
